According to the CheMixHub viscosity set:
Values joined by “and” are separate entries in the source; they are usually repeats but may differ in a detail not shown here. Equal entries are not always repeated. ± gives the uncertainty stated by the source.

CC(=O)[O-].CC[n+]1ccn(C)c1
viscosity
Details | 293.15 K | 303.15 K | 308.15 K | 313.15 K | 318.15 K | 323.15 K
100 kPa | 203 ± 11 mPa·s | 89.44 ± 4.3 mPa·s | – | 53.45 ± 2.5 mPa·s and 61.13 ± 2 mPa·s | – | 34.58 ± 1.6 mPa·s
101 kPa | 197 ± 12 mPa·s | 93.62 ± 6.1 mPa·s and 95.11 ± 2.8 mPa·s and 102.4 ± 6.3 mPa·s | 71.26 ± 4.6 mPa·s | 57.72 ± 2.5 mPa·s and 55.52 ± 3.6 mPa·s and 60.42 ± 3.6 mPa·s | 44.15 ± 2.9 mPa·s | 35.74 ± 2.3 mPa·s and 36.27 ± 0.97 mPa·s and 38.97 ± 2.4 mPa·s

N#C[C-](C#N)C#N.OCC[n+]1ccccc1
101 kPa
Details | viscosity [mPa·s]
293.15 K | 136.6 ± 14
298.15 K | 97.48 ± 10
303.15 K | 71.78 ± 7.3
308.15 K | 54.57 ± 5.5
313.15 K | 42.31 ± 4.3
318.15 K | 33.96 ± 3.4
323.15 K | 27.78 ± 2.8

C=CCO
viscosity [mPa·s]
Details | 298.15 K | 303.15 K | 313.15 K | 318.15 K | 323.15 K
101 kPa | – | 1.122 ± 0.01 | 0.9208 ± 0.0088 | 0.8419 ± 0.0081 | 0.7703 ± 0.0075
101.33 kPa | 1.232 ± 0.031 | – | – | – | –

CC(C)C#N
101 kPa
Details | viscosity
303.15 K | 0.461 ± 0.008 mPa·s
308.15 K | 0.434 ± 0.008 mPa·s and 0.433 ± 0.008 mPa·s

CCCCCCCCCCC
viscosity
Details | 293.15 K | 298.15 K | 303.15 K | 308.15 K | 313.15 K | 318.15 K | 323.15 K
100 kPa | 1.187 ± 0.048 mPa·s and 1.155 ± 0.014 mPa·s | 1.074 ± 0.023 mPa·s | 1.009 ± 0.041 mPa·s and 0.993 ± 0.021 mPa·s and 0.983 ± 0.012 mPa·s | 0.935 ± 0.038 mPa·s and 0.923 ± 0.02 mPa·s and 0.912 ± 0.011 mPa·s | 0.869 ± 0.035 mPa·s and 0.861 ± 0.018 mPa·s and 0.849 ± 0.011 mPa·s | 0.812 ± 0.033 mPa·s and 0.806 ± 0.017 mPa·s and 0.792 ± 0.01 mPa·s | 0.761 ± 0.031 mPa·s and 0.756 ± 0.016 mPa·s and 0.742 ± 0.009 mPa·s
101 kPa | – | 1.075 ± 0.013 mPa·s | – | 0.9373 ± 0.012 mPa·s | – | 0.7937 ± 0.01 mPa·s | –
101.33 kPa | – | 1.084 ± 0.027 mPa·s and 1.084 ± 0.013 mPa·s | – | – | – | – | –

OCCCl
viscosity
Details | 293.15 K | 298.15 K | 303.15 K | 308.15 K | 313.15 K
100 kPa | – | – | – | 2.234 ± 0.14 mPa·s | 1.882 ± 0.11 mPa·s
101.3 kPa | – | 2.973 ± 0.036 mPa·s | 2.611 ± 0.032 mPa·s | – | –
101.33 kPa | 3.588 ± 0.032 mPa·s | 2.81 ± 0.063 mPa·s and 2.985 ± 0.022 mPa·s | 2.624 ± 0.53 mPa·s and 2.448 ± 0.056 mPa·s | 2.15 ± 0.049 mPa·s | –

CCn1cc[n+](C)c1.[Cl][Al-]([Cl])([Cl])[Cl+][Al-]([Cl])([Cl])[Cl]
100 kPa
Details | viscosity [mPa·s]
293.15 K | 16.11 ± 0.15
303.15 K | 12.41 ± 0.11
313.15 K | 9.79 ± 0.088
323.15 K | 7.943 ± 0.072

COCC(C)OCC(C)O (stereo unspecified)
101.33 kPa
Details | viscosity [mPa·s]
298.15 K | 3.691 ± 0.053
308.15 K | 2.765 ± 0.04
318.15 K | 2.147 ± 0.032

OCCCO
viscosity
Details | 293.15 K | 298.15 K | 303.15 K | 308.15 K | 313.15 K | 318.15 K | 323.15 K
100 kPa | 54.53 ± 11 mPa·s (2×) and 53.1 ± 11 mPa·s and 52.75 ± 0.55 mPa·s | 42.89 ± 8.6 mPa·s (2×) and 41.2 ± 8.3 mPa·s | 34.62 ± 6.9 mPa·s (2×) and 33.4 ± 6.7 mPa·s and 32.51 ± 0.53 mPa·s | 27.06 ± 0.44 mPa·s | 21.85 ± 0.49 mPa·s | 19.93 ± 0.32 mPa·s | –
101 kPa | – | 42.1 ± 0.3 mPa·s and 42.06 ± 0.37 mPa·s | 33.7 ± 0.2 mPa·s | – | 22.1 ± 0.2 mPa·s and 20.29 ± 1.2 mPa·s | 18.8 ± 0.1 mPa·s and 16.88 ± 0.99 mPa·s | 14.16 ± 0.84 mPa·s
101.3 kPa | – | 41.77 ± 1.8 mPa·s | 33.35 ± 1.4 mPa·s | – | 22.39 ± 0.94 mPa·s | 18.61 ± 0.78 mPa·s | 15.66 ± 0.66 mPa·s

NC=O
viscosity
Details | 293.15 K | 298.15 K | 303.15 K | 308 K | 308.15 K | 313 K | 313.15 K | 318.15 K | 323.15 K
100 kPa | 3.734 ± 0.75 mPa·s | 3.34 ± 0.07 mPa·s | 2.964 ± 0.59 mPa·s and 2.874 ± 0.066 mPa·s | – | 2.612 ± 0.06 mPa·s | – | 2.351 ± 0.054 mPa·s | – | –
101 kPa | 3.656 ± 0.11 mPa·s and 3.792 ± 0.17 mPa·s | – | – | 2.648 mPa·s | – | 2.273 ± 0.35 mPa·s | – | – | 2.01 ± 0.05 mPa·s and 1.905 ± 0.019 mPa·s and 1.966 ± 0.091 mPa·s
101.3 kPa | – | 3.393 ± 0.031 mPa·s | 2.8 ± 0.1 mPa·s | – | 2.5 ± 0.1 mPa·s | – | 2.2 ± 0.1 mPa·s | – | 1.6 ± 0.1 mPa·s
101.33 kPa | – | 3.217 ± 0.018 mPa·s | 2.802 ± 0.025 mPa·s and 2.84 ± 0.14 mPa·s | – | 2.498 ± 0.022 mPa·s and 2.59 ± 0.13 mPa·s | – | 2.243 ± 0.02 mPa·s | 2.032 ± 0.018 mPa·s | 1.846 ± 0.017 mPa·s

CN1CCC[C@H]1c1cccnc1
viscosity
Details | 298.15 K | 303.15 K | 308.15 K | 318.05 K | 323.15 K
100 kPa | – | 3.6 ± 0.1 mPa·s | – | 2.5 ± 0.1 mPa·s | 2.195 ± 0.046 mPa·s
101 kPa | 3.894 ± 0.1 mPa·s (2×) and 3.894 ± 0.14 mPa·s (2×) and 3.894 ± 0.05 mPa·s | – | 3.156 ± 0.083 mPa·s and 3.156 ± 0.11 mPa·s | – | –
101.33 kPa | 3.894 ± 0.039 mPa·s (2×) and 3.891 ± 0.039 mPa·s | – | 3.156 ± 0.032 mPa·s | – | 2.038 ± 0.02 mPa·s

CCCC(O)CC (stereo unspecified)
Details | viscosity
298.15 K, 101.33 kPa | 4.34 ± 0.04 mPa·s and 4.34 ± 0.035 mPa·s

CCOC(=O)CCC(=O)OCC
101.33 kPa
Details | viscosity [mPa·s]
298.15 K | 2.466 ± 0.03
303.15 K | 2.196 ± 0.027
308.15 K | 1.973 ± 0.024
313.15 K | 1.779 ± 0.022
318.15 K | 1.615 ± 0.02

CC(=O)[O-].C[NH+]1C=CN=C1
Details | viscosity [mPa·s]
298.15 K, 100 kPa | 6.22 ± 0.14
